Target: human CB1 (cannabinoid receptor 1) (Homo sapiens, UniProt P21554)
Experiment: CB1 receptor inhibition effect: calcium ion influx assay (Fluo-4 NW) in Chem-1 cells after 1 μM R-(+)-WIN55212-2
Type: cell-based
Details: calcium ion influx in Chem-1 cells expressing human CB1, 1 μM R-(+)-WIN55212-2
Procedure: When cells in which the cannabinoid receptor 1 (CB1) is stably expressed are treated with a CB1 receptor agonist, the CB1 receptor is activated and influx of calcium ions into the cells increases. CB1 receptor inhibition effect of a test compound can be evaluated by measuring the degree of calcium influx inhibition after treating with the test compound.
First, Chem-1 cells (Chemicon International, #HTS019C) in which human CB1 cDNA is expressed stably were seeded onto a 96-well cell culture plate at a density of ˜50,000 cells/well and incubated overnight in a 5% CO2 incubator at 37° C. The next day, the culture medium was discarded and the cells were cautiously washed once using an assay buffer (HBSS containing 20 mM HEPES and 2.5 mM probenecid) with 200 μL/well. Calcium ion influx was measured using an assay kit (Fluo-4 NW calcium assay kit: Molecular Probes™, #F36206) according to the manufacturer's instructions. The compounds of Examples of desired concentration to be measured were comprised to 0.5% DMSO. For control, only 0.5% DMSO was used without the compounds of Examples. Reaction time was 10 minutes. After treating the Chem-1 cells stably expressing the CB1 receptor with 1 μM R-(+)-WIN55212-2 (Sigma, #W102), a CB1 receptor agonist, calcium ion (Ca^2+) flux induced thereby was measured for 80 seconds using Flex Station 3 (Molecular Device, USA).
The difference in calcium ion concentration of the cells treated with the compounds of Examples or those treated with 1 μM R-(+)-WIN55212-2 was obtained from the difference of the maximum and minimum values during the 80 seconds. Then, % inhibition of the compounds for the CB1 receptor was calculated using the following equation. % inhibition={1−(ΔRFUcompound−ΔRFUBlank)/(ΔRFUControl−ΔRFUBlank)}×100 [Equation]
ΔRFU: maximum relative fluorescence units−minimum relative fluorescence units
ΔRFUCompound: difference in maximum and minimum RFUs in the well where the compounds of Examples dissolved in DMSO to a final concentration of 0.5% and 1 μM R-(+)-WIN55212-2 dissolved in DMSO to a final concentration of 0.5% were added
ΔRFUBlank: difference in maximum and minimum RFUs in the well to which only 1% DMSO was added
ΔRFUControl: difference in maximum and minimum RFUs in the well where 0.5% DMSO and 1 μM R-(+)-WIN55212-2 dissolved in DMSO to a final concentration of 0.5% were added

Chain of human CB1 (cannabinoid receptor 1) (P21554 whole entry): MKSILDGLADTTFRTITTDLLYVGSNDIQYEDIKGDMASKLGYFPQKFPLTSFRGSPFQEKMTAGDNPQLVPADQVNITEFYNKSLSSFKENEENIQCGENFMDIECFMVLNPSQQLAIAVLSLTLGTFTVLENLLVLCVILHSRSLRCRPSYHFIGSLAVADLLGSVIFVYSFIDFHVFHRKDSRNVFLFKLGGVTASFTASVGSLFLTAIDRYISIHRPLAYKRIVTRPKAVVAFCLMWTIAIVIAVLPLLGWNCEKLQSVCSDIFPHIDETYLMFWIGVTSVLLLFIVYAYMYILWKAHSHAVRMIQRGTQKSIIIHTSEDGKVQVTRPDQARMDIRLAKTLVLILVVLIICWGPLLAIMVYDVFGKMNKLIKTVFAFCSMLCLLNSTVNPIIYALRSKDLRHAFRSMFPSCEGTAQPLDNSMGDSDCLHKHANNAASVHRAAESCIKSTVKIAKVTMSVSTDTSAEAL

IC50 [nM]	inhibition at 3 µM (compound at 3 μM) [%]	Structure (SMILES)
5		CCOCc1nn2c(-c3cccc(F)c3)cc(N3CCC[C@H]3CO)nc2c1-c1ccc(C)cc1 [Example 202]
100		Cc1ccc(-c2c(C)nn3c(-c4ccc(F)cc4)cc(N4CCC[C@H]4CO)nc23)cc1F [Example 79]
300		CCOc1ccc(-c2c(C)nn3c(-c4ccc(F)cc4)cc(N4CCC[C@H]4CO)nc23)cc1F [Example 81]
450		Cc1cccc(-c2cc(N3CCC[C@H]3CO)nc3c(-c4ccc(OC(F)(F)F)cc4)c(C)nn23)c1 [Example 168]
33		COc1ccc(-c2c(C)nn3c(-c4cccc(Cl)c4)cc(N4CCC[C@H]4CO)nc23)cc1 [Example 169, (S)-(1-(3-(4-methoxyphenyl)-7-(3-chlorophenyl)-2-methylpyrazolo[1,5-a]pyrimidin-5-yl)pyrrolidin-2-yl)methanol]
440		CCOCc1nn2c(-c3ccc(F)cc3)cc(N(C)CCO)nc2c1-c1ccc(OC)cc1 [Example 245]
410		Cc1ccc(-c2cc(N3CCC[C@H]3CO)nc3c(-c4ccc(C(F)(F)F)cc4)c(C)nn23)cc1 [Example 180]
160		Cc1cc(-c2c(C)nn3c(-c4ccc(F)cc4)cc(N4CCC[C@H]4CO)nc23)ccc1F [Example 101]
240		COc1ccc(-c2cc(N3CCC[C@H]3CO)nc3c(-c4ccc(C)cc4)c(C)nn23)cc1 [Example 27]
180		COc1cccc(-c2cc(N3CCC[C@H]3CO)nc3c(-c4ccc(F)cc4F)c(C)nn23)c1 [Example 190]
410		Cc1ccc(-c2c(C)nn3c(-c4cc(F)cc(F)c4)cc(N4CCC[C@H]4CO)nc23)cc1 [Example 35]
14		COCc1nn2c(-c3cccc(C(F)(F)F)c3)cc(N(C)CCO)nc2c1-c1ccc(OC)cc1 [Example 257]
690		Cc1ccc(-c2cnn3c(-c4ccc(F)c(F)c4)cc(N4CCC[C@H]4CO)nc23)cc1 [Example 272]
94		Cc1nn2c(-c3ccc(F)cc3)cc(N3CCC[C@H]3CO)nc2c1-c1ccc(C(F)F)cc1 [Example 67]
150		Cc1nn2c(-c3ccc(F)c(Cl)c3)cc(N3CCC[C@H]3CO)nc2c1-c1ccc(F)cc1 [Example 192]
310		CCc1ccc(-c2c(C)nn3c(-c4ccc(C)cc4)cc(N4CCC[C@H]4CO)nc23)cc1 [Example 182]
180		CCOc1ccc(-c2c(C)nn3c(-c4ccc(F)c(F)c4)cc(N4CCC[C@H]4CO)nc23)cc1 [Example 48, (S)-{1-[7-(3,4-difluorophenyl)-3-(4-ethoxyphenyl)-2-methylpyrazolo[1,5-a]pyrimidin-5-yl)pyrrolidin-2-yl)methanol]
120		COc1cccc(-c2cc(N3CCC[C@H]3CO)nc3c(-c4ccc(C(F)F)cc4)c(C)nn23)c1 [Example 178]
210		COc1ccc(-c2c(C)nn3c(-c4cccc(C)c4)cc(N4CCC[C@H]4CO)nc23)cc1 [Example 157, (S)-(1-(3-(4-methoxyphenyl)-7-(3-methylphenyl)-2-methylpyrazolo[1,5-a]pyrimidin-5-yl)pyrrolidin-2-yl)methanol]
110		Cc1cccc(-c2cc(N3CCC[C@H]3CO)nc3c(-c4ccc(C(F)F)cc4)c(C)nn23)c1 [Example 160]
69		Cc1nn2c(-c3cccc(C(F)(F)F)c3)cc(N3CCC[C@H]3CO)nc2c1-c1ccc(C(F)F)cc1 [Example 126]
340		OC[C@@H]1CCCN1c1cc(-c2cccc(C(F)(F)F)c2)n2ncc(-c3ccc(F)cc3)c2n1 [Example 276]
270		Cc1ccc(-c2c(C)nn3c(-c4cccc(Cl)c4)cc(N4CCC[C@H]4CO)nc23)cc1F [Example 176]
	~5	Cc1nn2c(-c3ccccc3)cc(N3CCC[C@@H]3CO)nc2c1-c1ccc(Cl)cc1 [Example 305]
53		Cc1ccc(-c2c(C)nn3c(-c4ccc(F)c(F)c4)cc(N4CCC[C@H]4CO)nc23)cc1 [Example 26, (S)-(1-(3-(4-methylphenyl)-7-(3,4-difluorophenyl)-2-methylpyrazolo[1,5-a]pyrimidin-5-yl)pyrrolidin-2-yl)methanol]

Source: patent publication US8975264B2, “Compound acting as a cannabinoid receptor-1 inhibitor” (Amorepacific Corporation, priority 2010, dated 2015)
